Our source for the solubility values is the OPERA property sets (Mansouri et al. 2018).

SMILES strings stand for the structures. Values after ≈ are worked out from the molar mass of the structure shown.

Conditions in one data set: not given
With `COc1cc(NS(=O)(=O)c2ccc(N)cc2)nc(C)n1`, the solubility (commonly the dissolved amount per volume that the medium holds) was determined as 2.86 mM (≈ 843 µg/mL).
As to `CN(C)c1ccc(C(=O)O)cc1`, the solubility came out at 0.4 mM (≈ 66.1 µg/mL).
Same read-out and setting: the figure for `c1ccc2c3c(ccc2c1)-c1cccc2cccc-3c12` is 9.91e-06 mM (≈ 0.0025 µg/mL).
The same measure, in the same setting: the figure for `CNC(=O)Oc1cccc(N=CN(C)C)c1` is 4.52 mM (≈ 1000 µg/mL).
Same read-out and setting: with `CC1=C2[C@H]3OC(=O)[C@@H](C)[C@@H]3CC[C@@]2(C)C=CC1=O` the figure was 0.812 mM (≈ 200 µg/mL); with `Cn1c(=O)[nH]c2[nH]c(=O)[nH]c2c1=O`, 27.5 mM (≈ 5000 µg/mL).
Turning to `COc1cc(NS(=O)(=O)c2ccc(N)cc2)nc(OC)n1`, the solubility came to 1.11 mM (≈ 343 µg/mL).
Same read-out and setting: with `COC(=O)c1cc(O)c(O)c(O)c1` the figure was 57.6 mM (≈ 10600 µg/mL).
Still for that read-out and setting: the figure for `CCCCOc1ccc(C(=O)OCCN(CC)CC)cc1` is 0.13 mM (≈ 38.1 µg/mL); for `CCC(N)Cc1c[nH]c2ccccc12` (configuration not stated) it is 2.71 mM (≈ 510 µg/mL).

The same data set, now with this note: 20 °C.
`O=C(O)c1ccccc1C(c1ccc(O)cc1)c1ccc(O)cc1` came in with a solubility of 0.546 mM (≈ 175 µg/mL).
`Clc1ccc2c(c1)Oc1cc(Cl)c(Cl)c(Cl)c1O2` came in with a solubility of 1.34e-06 mM (≈ 0.00043 µg/mL).
In turn, `CNc1ccccc1C(=O)O` showed a solubility of 1.32 mM (≈ 200 µg/mL).
Molecule `Clc1cc2c(cc1Cl)Oc1c(Cl)c(Cl)c(Cl)c(Cl)c1O2` yielded a solubility of 1.13e-08 mM (≈ 4.4e-06 µg/mL).
Still for that read-out and setting: with `Clc1ccc(-c2cc(Cl)ccc2Cl)c(Cl)c1` the figure was 0.000267 mM (≈ 0.0781 µg/mL); with `C[C@@H](CCl)[N+](=O)[O-]`, 64.8 mM (≈ 8000 µg/mL); with `c1ncc2nc[nH]c2n1`, 4160 mM (≈ 500000 µg/mL).
For the molecule `OCCCCl`, the solubility was 2640 mM (≈ 250000 µg/mL).
For the molecule `Clc1cc(Cl)c(-c2c(Cl)c(Cl)cc(Cl)c2Cl)cc1Cl`, the solubility is 1.14e-05 mM (≈ 0.00451 µg/mL).
The same measure, in the same setting: with `CCC(C)OC(C)=O` (configuration not stated) the figure was 53.4 mM (≈ 6200 µg/mL).
Molecule `Clc1cc(-c2cccc(Cl)c2Cl)cc(Cl)c1Cl` returned a solubility of 3.93e-05 mM (≈ 0.0128 µg/mL).
On the same count and under the same terms, with `CNC(=O)N(C)c1nc2ccccc2s1` the figure was 0.267 mM (≈ 59 µg/mL); with `O=C(O)[C@H]1CCCC[C@@H]1C(=O)O` (relative stereo), 11.6 mM (≈ 2000 µg/mL); with `O=C(O)C=Cc1ccco1`, 14.5 mM (≈ 2000 µg/mL).
Still for that read-out and setting: with `Nc1cnn(-c2ccccc2)c(=O)c1Cl` the figure was 1.8 mM (≈ 400 µg/mL).
Same read-out and setting: the figure for `O=C(O)c1nc[nH]c1C(=O)O` is 3.2 mM (≈ 500 µg/mL).

Still in this data set, the particulars now being: 21 °C.
With `NC(=S)c1c(Cl)cccc1Cl`, the solubility was determined as 4.61 mM (≈ 950 µg/mL).
Still for that read-out and setting: with `CCOc1ccc(NC(N)=O)cc1` the figure was 6.71 mM (≈ 1210 µg/mL).

The data set is the same for the next values; noted with them: 22 °C.
`Cc1ccccc1Oc1cccnn1` showed a solubility of 10.7 mM (≈ 2000 µg/mL).
For `COC(=O)NS(=O)(=O)c1ccc(N)cc1`, the solubility stood at 21.7 mM (≈ 5000 µg/mL).

Still in this data set, the particulars now being: 24 °C.
With `O=P(OC(CCl)CCl)(OC(CCl)CCl)OC(CCl)CCl`, the solubility was determined as 0.0162 mM (≈ 7 µg/mL).

Staying with this data set, now noted: 25 °C.
Regarding `C1=CCCCCC1`, the solubility was 0.686 mM (≈ 66 µg/mL).
`FC(F)(F)C(F)(F)F` displayed a solubility of 0.0564 mM (≈ 7.78 µg/mL).
`Clc1cccc(-c2cccc(Cl)c2)c1` showed a solubility of 0.00159 mM (≈ 0.355 µg/mL).
Consider `CCCCCCc1ccccc1`, for which the solubility was found to be 0.00556 mM (≈ 0.902 µg/mL).
The same measure, in the same setting: the figure for `CCCCCCCC=O` is 4.37 mM (≈ 560 µg/mL); for `Cc1ccc(C)c2c(C)cccc12` it is 0.0123 mM (≈ 2.1 µg/mL); for `CCCCC(C)CC` (configuration not stated) it is 0.00693 mM (≈ 0.792 µg/mL).
On the same count and under the same terms, the figure for `Clc1cc(Cl)cc(-c2cc(Cl)cc(Cl)c2)c1` is 4.22e-06 mM (≈ 0.00123 µg/mL); for `Cc1cccc(C)c1NC(=O)c1cc(S(N)(=O)=O)c(Cl)cc1O` it is 0.163 mM (≈ 58 µg/mL).
The same measure, in the same setting: the figure for `O=C(O)c1ccsc1` is 33.6 mM (≈ 4300 µg/mL).
Molecule `CC(Cl)(Cl)C(=O)O` displayed a solubility of 3510 mM (≈ 502000 µg/mL).
As for `CCCCC(N)C(=O)O` (racemic), the solubility amounted to 88.5 mM (≈ 11600 µg/mL).
The same measure, in the same setting: with `CC(C)C(C)C(C)C` the figure was 0.0201 mM (≈ 2.3 µg/mL); with `CCC1(CC)C(=O)NC(=O)N(C)C1=O`, 9.99 mM (≈ 1980 µg/mL).
The same measure, in the same setting: the figure for `CN1C(=O)C(C)(C2=CCCCC2)C(=O)N=C1O` (configuration not stated) is 1.84 mM (≈ 435 µg/mL); for `O=C(O)COc1ccc(Cl)cc1Cl` it is 3.06 mM (≈ 677 µg/mL).
Still for that read-out and setting: with `O=C(O)COc1ccccc1Cl` the figure was 6.86 mM (≈ 1280 µg/mL); with `CCC1(C2=C[C@H]3CC[C@@H](C2)C3)C(=O)NC(=O)NC1=O`, 1.7 mM (≈ 446 µg/mL); with `CN(C)C(=O)Nc1ccccc1`, 24.5 mM (≈ 4030 µg/mL).
In turn, `CCCCCCCCCCCCCC(=O)O` returned a solubility of 0.00468 mM (≈ 1.07 µg/mL).
Still for that read-out and setting: the figure for `C1CCCNCC1` is 1710 mM (≈ 170000 µg/mL); for `CC(=O)OCC(=O)[C@@]1(O)CCC2C3CCC4=CC(=O)CC[C@]4(C)C3[C@@H](O)C[C@@]21C` (some centres not stated) it is 0.0349 mM (≈ 14.1 µg/mL).
On the same count and under the same terms, with `CCOC(=O)c1ccccc1` the figure was 4.79 mM (≈ 720 µg/mL); with `Clc1cc(Cl)cc(Cl)c1`, 0.0331 mM (≈ 6.01 µg/mL).
Still for that read-out and setting: the figure for `c1ccc2c(c1)OCCOCCOc1ccccc1OCCOCCO2` is 0.0203 mM (≈ 7.3 µg/mL); for `C=CCBr` it is 31.7 mM (≈ 3830 µg/mL); for `C=CCCCCCC` it is 0.0365 mM (≈ 4.1 µg/mL).
With `Cc1ccc(N=C=S)cc1`, the solubility came to 0.019 mM (≈ 2.83 µg/mL).
`Cc1c2ccccc2cc2ccccc12` yielded a solubility of 0.00136 mM (≈ 0.261 µg/mL).
`C=CCCCCC` yielded a solubility of 0.185 mM (≈ 18.2 µg/mL).
In turn, `O=C(O)c1cc(O)c(O)c(OC(=O)c2cc(O)c(O)c(O)c2)c1` gave a solubility of 1.55 mM (≈ 500 µg/mL).
On the same count and under the same terms, with `CC1CCC(C)(C)C1` (configuration not stated) the figure was 0.0332 mM (≈ 3.73 µg/mL).
Still for that read-out and setting: the figure for `COP(=S)(OC)SCCSC(C)C` is 0.373 mM (≈ 97 µg/mL).
Same read-out and setting: with `C#CCCCCC` the figure was 0.977 mM (≈ 94 µg/mL); with `NC(=O)c1ccccc1O`, 15 mM (≈ 2060 µg/mL).
As for `O=[N+]([O-])O[C@H]1CO[C@H]2[C@@H]1OC[C@H]2O[N+](=O)[O-]`, the solubility was 2.33 mM (≈ 550 µg/mL).
Same read-out and setting: the figure for `Clc1cc(Cl)c(Cl)c(-c2c(Cl)c(Cl)cc(Cl)c2Cl)c1Cl` is 3.42e-07 mM (≈ 0.000147 µg/mL); for `CC(C)(N)C(=O)O` it is 1760 mM (≈ 181000 µg/mL).
The same measure, in the same setting: with `CC1CCCC(C)(C)C1` (configuration not stated) the figure was 0.014 mM (≈ 1.77 µg/mL).
Turning to `CC(=O)OCC(=O)[C@@]1(O)CC[C@H]2[C@@H]3CCC4=CC(=O)CC[C@]4(C)[C@H]3C(=O)C[C@@]21C`, the solubility stood at 0.0497 mM (≈ 20 µg/mL).
Take `C[C@H]1c2cccc(O)c2C(=O)C2=C(O)[C@]3(O)C(=O)C(C(N)=O)=C(O)[C@@H](N(C)C)[C@@H]3[C@@H](O)[C@@H]21`: the solubility turned out to be 1.42 mM (≈ 630 µg/mL).
The same measure, in the same setting: the figure for `CC(=O)OCC(C)C` is 54.2 mM (≈ 6300 µg/mL); for `O=[N+]([O-])c1cc(C2CCCCC2)c(O)c([N+](=O)[O-])c1` it is 0.0563 mM (≈ 15 µg/mL); for `C=Cc1ccccc1` it is 2.98 mM (≈ 310 µg/mL).
On the same count and under the same terms, the figure for `NCC[C@H](O)C(=O)N[C@@H]1C[C@H](N)[C@@H](O[C@H]2O[C@H](CN)[C@@H](O)[C@H](O)[C@H]2O)[C@H](O)[C@H]1O[C@H]1O[C@H](CO)[C@@H](O)[C@H](N)[C@H]1O` is 316 mM (≈ 185000 µg/mL); for `COC(C)C` it is 877 mM (≈ 65000 µg/mL); for `C#CCCCCCC#C` it is 1.04 mM (≈ 125 µg/mL).
The same measure, in the same setting: the figure for `CCCCc1c(C)nc(N(C)C)nc1O` is 5.73 mM (≈ 1200 µg/mL).
With `ONc1ccccc1`, the solubility is 259 mM (≈ 28300 µg/mL).
The same measure, in the same setting: with `COc1cc(-c2ccc(N)c(OC)c2)ccc1N` the figure was 0.246 mM (≈ 60 µg/mL); with `Cc1cc(C)c2ccccc2n1`, 11.4 mM (≈ 1790 µg/mL).
The same measure, in the same setting: the figure for `C#CC(C)(C)NC(=O)c1cc(Cl)cc(Cl)c1` is 0.0586 mM (≈ 15 µg/mL).
`NCCC(=O)O` showed a solubility of 6120 mM (≈ 545000 µg/mL).
As for `O=C(O)c1cc([N+](=O)[O-])cc([N+](=O)[O-])c1`, the solubility came out at 6.37 mM (≈ 1350 µg/mL).
Same read-out and setting: with `CSCCC(N)C(=O)O` (racemic) the figure was 331 mM (≈ 49300 µg/mL); with `CC(=O)O[C@@H](C(=O)O)c1ccccc1`, 58.7 mM (≈ 11400 µg/mL).
The molecule `C=CCCBr` gave a solubility of 5.66 mM (≈ 764 µg/mL).

Still in this data set, the particulars now being: 27 °C.
For the molecule `Cc1cc2ccccc2c2ccc3ccccc3c12`, the solubility was found to be 0.000256 mM (≈ 0.062 µg/mL).

The data set is the same for the next values; noted with them: 30 °C.
In turn, `C#CC=C` had a solubility of 34.3 mM (≈ 1790 µg/mL).
In turn, `Cc1c(N(C)C)c(=O)n(-c2ccccc2)n1C` returned a solubility of 235 mM (≈ 54400 µg/mL).
On the same count and under the same terms, the figure for `COP(=S)(OC)Oc1ccc(C#N)cc1` is 0.189 mM (≈ 46 µg/mL).
